This is an account of results in US20180318199A1, “Pharmaceutical Composition Having Anti-Aging Properties against High-Glucose” (TAIWAN LEADER BIOTECH CORP., priority 2017, published 2018).

The subject of one assay is wild-type C. elegans. Briefly: C. elegans lifespan assay. In kind it is in vivo, Caenorhabditis elegans. As to the method: It has been well documented that high glucose levels decrease the life span of C. elegans by increasing ROS formation and advance glycation end-product modification of mitochondrial proteins. Therefore, it is further investigated whether ANM has a protective effect against hyperglycemia-induced oxidative stress as well as anti-aging effects. Worms are incubated with high glucose (50 mM) with or without ANM […], and controlled for life span evaluation. In FIG. 8B, effect of ANM on the life span of C. elegans under hyperglycemic condition is examined. Age synchronized L1 larvae are transfected to NGM plates which contain HG (50 mM) with or without ANM (10 μM) and worms are developed to adulthood. The survival rate is scored everyday and is expressed as a percentage of survival. […] Results are expressed as mean±S.E.M of three independent experiments. Statistical significance is set at ^ϕP<0.05 as compared to control vs. HG, *P<0.05 as compared to HG vs. HG+sample and ̂P<0.05 as compared to control vs. samples.
Control worms are treated with 0.01% DMSO. All worms are kept 20° C. to develop adulthood. After 6 days, worms are transferred to plates containing glucose are applicable. Surviving and dead animals are counted daily (starting from the first day of adulthood) until all worms had died. […] Worms suffering from internal hatch (a defect in egg-laying) and those that crawled off the NGM plate are not included in the life-span assay. During the reproductive period, adult worms are transferred to fresh NGM plates every day during the progeny production period and then every other day thereafter. Life span assay result is obtained from three independent assays.

In another assay the test system is HUVECs. Kind of assay: SA-β-gal senescence assay in HUVECs. In kind it is cell-based, human. The conditions noted are these: ANM 10 μM + HG 30 mM, 48 h; HG alone 6.38-fold. As to the method:
Please refer to FIG. 9A˜FIG. 9H, which are views showing HG-induced senescence prevented by ANM in human umbilical vein endothelial cells (HUVECs). As shown in the figures, to further delineate the protective effects of ANM on another cell system, experiments are designed to investigate the protective effect of ANM on HUVECs incubated in media containing either NG or HG alone or with ANM for 48 h. Cell viability is measured by MTT assay. […] Cell viability is determined by MTT assay. Percentage of viable cells are normalized with control cells (NG). […] In addition, in FIG. 9B, cellular senescence is determined by SA-β-gal activity assay. […] In addition, in FIG. 9C and FIG. 9D, total cell lysate is extracted and senescence-associated marker proteins including p16^INK4A, p21^CIP1 total and acetylated p53 and FoxO1 are measured by western blot analysis.
Senescence-associated β-galactosidase (SA-β-gal) activity is determined in formaldehyde-fixed histochemical staining kit according to the manufacturer's instructions (Cell Signaling Technology, Danvers, Calif.). Briefly, cells are grown in 6-well plates at a density of 5×10^4 cells/well, and incubated with HG or test samples for 48 h (HUVECs) or 72 h (HNDFs). […]

The subject of a further assay is SIRT-1, SIRT-3, SIRT-6. Kind of assay: Western blot of SIRT proteins and phos-SIRT-1 in HNDFs. The class given is cell-based, human. Particulars: 72 h. As to the method: Total cell lysate is extracted and subjected to western blot analysis to monitor SIRT-1, SIRT-3, SIRT-6 protein levels.
The protein expression levels of SIRT-1, SIRT-6, p21^CIP1, SMP30, p53, FoxO and acetylation of p53 and FoxO1 are determined by western blot analysis.
To further understand the regulation of SIRT-1 by ANM, the effect of ANM on SIRT-1 activation and protein stability is examined under hyperglycemic conditions. In FIG. 7I, cells are incubated with JNK/SAPK or p38 MAPK inhibitors SP600125 (SP, 30 μM) and SB203580 (SB, 30 μM) in the presence of HG for 72 h. The protein expression levels of phos-SIRT-1 and SIRT-1 are determined by western blotting. Results are expressed as mean±S.E.M of three independent experiments. Statistical significance is set at ^ϕP<0.05 as compared to NG vs. HG and *P<0.05 as compared to HG vs. samples. Previous studies have shown that hyperphosphorylation of SIRT-1 at serine 47 (Ser47) is correlated with enhanced endothelial senescence. In addition, persistent activation of JNK1/2 by multiple factors including hyperglycemia induces extensive SIRT-1 proteasome degradation followed by phosphorylation at Ser47. […] Therefore, it is hypothesized that ANM-mediated suppression of JNK1/2 and p38 MAPK activation may have a functional role in the stability of SIRT-1 protein.
Cells are lysed by either RIPA lysis buffer or nuclear and cytoplasmic extraction reagents (Thermo Fisher Scientific). Protein concentrations are determined by Bio-Rad protein assay reagent (Bio-Rad Laboratories, Hercules, Calif.). Equal amounts of protein samples (60 μg) are separated by 7-12% SDS-PAGE and the separated proteins are transferred onto polyvinylidene […] (PVDC) membrane overnight. The transferred protein membranes are blocked with 5% non-fat dried milk for 30 min, followed by incubation with specific primary antibodies overnight, and either horseradish peroxidase-conjugated goat anti-rabbit or anti-mouse antibodies for 2 h. The blots are detected using VL Chemi-Smart 3000 (Viogene Biotek, Sunnyvale, Calif.) with the enhanced chemiluminescence (ECL) western blotting reagent (Millipore, Billerica, Mass.).
In general terms: A western blot detects proteins with antibodies after separation by electrophoresis.

On to `C=C(CCC(C)C1CCC2C3=C(C(=O)C(O)C21C)C1(C)CCC(O)C(C)C1CC3)C(C)C(=O)O` (stereo not drawn) [ANM, antcin M], for which the “life span of C. elegans under normal condition” value with wild-type C. elegans (ANM 10 μM or RES 438 μM vs control) is “significantly (P<0.026) prolongs”. Also, the “life span of C. elegans under hyperglycemic condition” value with wild-type C. elegans (HG 50 mM with ANM 10 μM vs HG alone) is reported as “significant (P<0.0001) increase”. The “SA-β-gal staining in HUVECs” value in the assay on HUVECs amounted to 1.36 fold. The “HG-induced reduction in SIRT-1, SIRT-3 and SIRT-6 proteins” value in the assay with SIRT-1, SIRT-3, SIRT-6 (ANM 10 μM + HG 30 mM) is listed as “significantly prevented”. For the same compound, the “SIRT-1 and SIRT-6 expression, control siRNA cells” value with SIRT-1, SIRT-3, SIRT-6 (ANM 10 μM + HG) is “significantly increases”. The “HG-induced SIRT-1 phosphorylation at Ser47” value in the assay with SIRT-1, SIRT-3, SIRT-6 (ANM or RES + HG) is given as “significantly attenuates”.
